Reference: ChEMBL document CHEMBL1201862, “PubChem BioAssay data set” (2004)
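Values below derive from 48-hour exposures of cells grown in 96-well plates, with endpoints linearly interpolated between the two concentrations bracketing the appropriate inhibition level. GI50: concentration for 50% inhibition of growth.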 The source made the active and inactive calls. No stated cut-off is given here; in the data, active = GI50 up to about 1.1 µM and inactive = higher.

Key:
Assay in all cases: NCI-60 cell line screen, 48 h
K562 = tested on: K562
UO-31 = tested on: UO-31
T47D = tested on: T47D
SNB-75 = tested on: SNB-75
NCI/ADR-RES = tested on: NCI/ADR-RES
COLO 205 = tested on: COLO 205
NCI-H522 = tested on: NCI-H522
BT-549 = tested on: BT-549
HT-29 = tested on: HT-29
HCT-116 = tested on: HCT-116
LOX IMVI = tested on: LOX IMVI
OVCAR-8 = tested on: OVCAR-8
MDA-MB-231 = tested on: MDA-MB-231
Malme-3M = tested on: Malme-3M
NCI-H226 = tested on: NCI-H226
MCF7 = tested on: MCF7
SNB-19 = tested on: SNB-19
SF-539 = tested on: SF-539
HOP-62 = tested on: HOP-62
UACC-62 = tested on: UACC-62
EKVX = tested on: EKVX
A498 = tested on: A498
SK-MEL-2 = tested on: SK-MEL-2
SN12C = tested on: SN12C
ACHN = tested on: ACHN
MOLT-4 = tested on: MOLT-4
CAKI-1 = tested on: CAKI-1
OVCAR-5 = tested on: OVCAR-5
SK-MEL-28 = tested on: SK-MEL-28
A549 = tested on: A549
OVCAR-4 = tested on: OVCAR-4
M14 = tested on: M14
SF-268 = tested on: SF-268
SK-OV-3 = tested on: SK-OV-3
PC-3 = tested on: PC-3
MDA-N = tested on: MDA-N
RXF 393 = tested on: RXF 393
TK-10 = tested on: TK-10
HCC 2998 = tested on: HCC 2998
UACC-257 = tested on: UACC-257
HL-60 = tested on: HL-60
NCI-H460 = tested on: NCI-H460
SW-620 = tested on: SW-620
SF-295 = tested on: SF-295
Hs-578T = tested on: Hs-578T
CCRF-CEM = tested on: CCRF-CEM
SR = tested on: SR
MDA-MB-435 = tested on: MDA-MB-435
KM12 = tested on: KM12
786-0 = tested on: 786-0
IGROV-1 = tested on: IGROV-1
NCI-H23 = tested on: NCI-H23
U-251 = tested on: U-251
HCT-15 = tested on: HCT-15
DU-145 = tested on: DU-145
OVCAR-3 = tested on: OVCAR-3
HOP-92 = tested on: HOP-92
RPMI-8226 = tested on: RPMI-8226
SK-MEL-5 = tested on: SK-MEL-5

Measured: GI50

COc1cc2c(c(OC)c1OC)-c1ccc(SC)c(=O)cc1[C@@H](O)CC2
0.000605 µM: HCT-15
active: K562 0.00948 µM | UO-31 0.0208 µM | T47D > 1 µM | SNB-75 0.01 µM | NCI/ADR-RES 0.00253 µM | COLO 205 0.000408 µM | NCI-H522 0.00065 µM | BT-549 0.00168 µM | HT-29 0.000294 µM | HCT-116 0.000381 µM | LOX IMVI 0.00078 µM | OVCAR-8 0.00107 µM | MDA-MB-231 0.00115 µM | Malme-3M 0.00021 µM | NCI-H226 0.000703 µM | MCF7 0.000386 µM | SNB-19 0.00104 µM | SF-539 0.000356 µM | HOP-62 0.000834 µM | UACC-62 0.000469 µM | EKVX 0.000748 µM | A498 0.0305 µM | SK-MEL-2 0.00367 µM | SN12C 0.00265 µM | ACHN 0.0011 µM | MOLT-4 0.00108 µM | CAKI-1 0.00166 µM | OVCAR-5 0.0069 µM | SK-MEL-28 0.0222 µM | A549 0.000895 µM | OVCAR-4 > 1 µM | M14 0.000333 µM | SF-268 0.00128 µM | SK-OV-3 0.000392 µM | PC-3 0.000353 µM | MDA-N 0.000121 µM | RXF 393 0.000317 µM | TK-10 > 1 µM | HCC 2998 0.00122 µM | UACC-257 0.0252 µM | HL-60 0.000269 µM | NCI-H460 0.000586 µM | SW-620 0.000333 µM | SF-295 0.000225 µM | Hs-578T 0.000261 µM | CCRF-CEM 0.00031 µM | SR 0.00258 µM | MDA-MB-435 0.000122 µM | KM12 0.000234 µM | 786-0 0.000834 µM | IGROV-1 0.00067 µM | NCI-H23 0.000803 µM | U-251 0.000378 µM | DU-145 0.000665 µM

[N-]=[N+]=NC1=C(c2ccccn2)C(=O)c2cccc3cccc1c23
inactive: K562 23.2 µM | UO-31 7.48 µM | T47D > 100 µM | SNB-75 29 µM | NCI/ADR-RES 50.8 µM | COLO 205 76.9 µM | BT-549 27.3 µM | HT-29 21.1 µM | HCT-116 8.63 µM | LOX IMVI 8.65 µM | MDA-MB-231 69.3 µM | Malme-3M 49.2 µM | MCF7 23.6 µM | SNB-19 28.6 µM | SF-539 32.8 µM | HOP-62 19.7 µM | UACC-62 20 µM | A498 5.48 µM | SK-MEL-2 43.5 µM | SN12C 20.8 µM | ACHN 15.7 µM | MOLT-4 1.77 µM | CAKI-1 26.7 µM | OVCAR-5 79.6 µM | SK-MEL-28 > 100 µM | A549 27.7 µM | OVCAR-4 31.1 µM | M14 23.9 µM | SF-268 12 µM | SK-OV-3 36.7 µM | PC-3 39.3 µM | MDA-N 53.8 µM | RXF 393 37.2 µM | TK-10 41.7 µM | HCC 2998 57.5 µM | UACC-257 32.8 µM | HL-60 20.7 µM | NCI-H460 12 µM | SW-620 22.9 µM | SF-295 42.5 µM | Hs-578T 27 µM | OVCAR-3 27.7 µM | CCRF-CEM 7.03 µM | HOP-92 29.9 µM | SR 27.7 µM | MDA-MB-435 36.5 µM | RPMI-8226 34 µM | SK-MEL-5 6.84 µM | KM12 25.4 µM | 786-0 25.2 µM | IGROV-1 14.8 µM | NCI-H23 19.2 µM | U-251 29.2 µM | DU-145 39.7 µM
29 µM: HCT-15

CC(=O)NC1C(OCc2ccccc2)OC(CO)C(O)C1OC(C)C(=O)NC(C(=O)NC(CCC(=O)Nc1ccc2c(c1)CN1C(=O)c3ccccc3C1=N2)C(N)=O)C(C)C (configuration not stated)
inactive: K562 > 100 µM | UO-31 > 100 µM | T47D > 100 µM | SNB-75 > 100 µM | NCI/ADR-RES > 100 µM | COLO 205 > 100 µM | BT-549 > 100 µM | HT-29 > 100 µM | HCT-116 > 100 µM | LOX IMVI > 100 µM | OVCAR-8 > 100 µM | MDA-MB-231 > 100 µM | Malme-3M > 100 µM | MCF7 > 100 µM | SNB-19 > 100 µM | SF-539 > 100 µM | HOP-62 > 100 µM | UACC-62 > 100 µM | EKVX > 100 µM | A498 > 100 µM | SK-MEL-2 > 100 µM | SN12C > 100 µM | ACHN > 100 µM | MOLT-4 > 100 µM | CAKI-1 > 100 µM | OVCAR-5 > 100 µM | SK-MEL-28 > 100 µM | A549 > 100 µM | OVCAR-4 > 100 µM | M14 > 100 µM | SF-268 > 100 µM | SK-OV-3 > 100 µM | PC-3 > 100 µM | MDA-N > 100 µM | RXF 393 > 100 µM | TK-10 > 100 µM | HCC 2998 > 100 µM | UACC-257 > 100 µM | HL-60 > 100 µM | NCI-H460 > 100 µM | SW-620 > 100 µM | SF-295 > 100 µM | Hs-578T > 100 µM | OVCAR-3 > 100 µM | CCRF-CEM > 100 µM | HOP-92 > 100 µM | SR > 100 µM | MDA-MB-435 > 100 µM | RPMI-8226 > 100 µM | SK-MEL-5 > 100 µM | KM12 > 100 µM | 786-0 > 100 µM | IGROV-1 > 100 µM | NCI-H23 > 100 µM | U-251 > 100 µM | DU-145 > 100 µM
> 100 µM: HCT-15
